From publication PMC11863921 (BMC Biology, 2025)
Entries after “also recorded” stand apart in the source; their conditions may differ.

Legend:
[1] = tested on: AsolLGR4(short); test: CRE reporter gene assay in HEK-293T cells transfected with AsolLGR4(short); assay type: cell-based, A. cf. solaris; conditions: HEK-293T cells with AsolLGR4(short), any concentration tested
Excerpt: (§1) The coding sequences for AsolRXFP/LGR3, AsolLGR4(short), and AsolLGR4(long) lacking a native N-terminal signal peptide were optimized for mammalian codon usage, but with the addition of a 5′ nucleotide sequence encoding an N-terminal bovine prolactin precursor signal peptide followed by a FLAG tag. The coding sequences for each construct are presented in Additional file 16: Dataset S9. Following the addition of a Kozak sequence (GCCACC) before the start codon of each coding sequence, the receptor cDNAs were synthesized in pUC57 vectors (GenScript, Hong Kong) with BamHI and XhoI restriction sites and Gateway‐compatible attB5 and attB2 sites at both ends to also allow recloning into pcDNA3.1/Zeo ( +) or Gateway (Invitrogen) vectors. pUC57 vectors were first digested with BamHI and XhoI restriction enzymes together with pcDNA3.1/Zeo ( +) followed by agarose gel purification of the digested DNA. Receptor constructs were ligated into the cut pcDNA3.1/Zeo ( +) vector to produce pcDNA-AsolRXFP/LGR3, pcDNA − AsolLGR4(short), and pcDNA − AsolLGR4(long). The sequences were confirmed by using Sanger sequencing on both strands. The AsolRXFP/LGR3 sequence was cloned into a lentiviral vector under the control of the constitutive human Ef1α promoter using Gateway technology (Invitrogen), according to the manufacturer’s instructions. […]

[2] = tested on: AsolLGR4(long); test: CRE reporter gene assay in HEK-293T cells transfected with AsolLGR4(long); assay type: cell-based, A. cf. solaris; conditions: HEK-293T cells with AsolLGR4(long), any concentration tested
Excerpt: as §1

[3] = tested on: ovarian fragments of A. cf. solaris; test: In vitro spawning assay with ovarian fragments of A. cf. solaris; conditions: 1 h; for gonadotropic activity (shedding of mature eggs / spawning): 2 × 10^−10–2 × 10^−6 M, four separate assays
Excerpt: Adult A. cf. solaris were collected from the Great Barrier Reef by Pacific Marine Group divers associated with the Great Barrier Reef Marine Park Authority (GBRMPA) before being transported to the University of the Sunshine Coast aquarium facility. Animals were briefly maintained in a re-circulating protein-skimmed and aerated saltwater system of approximately 1500 L. The animals used were approximately 25–55 cm in diameter and kept unfed for the duration of the experiment. The gender and ovarian maturation stage was determined by using a minor gonad tissue biopsy technique and, thereafter, animals were individually segregated in a flowthrough aerated tank filled with approximately 55 L of filtered seawater for a minimum of 24 h to recover and acclimatize.
AsoRGP1 and AsoRGP2 were synthesized as described previously. In addition, a modified form of AsoRGP2 was synthesized in which the N-terminal residue of the A-chain (glutamine, Q) was substituted with pyroglutamate (pQ), recognizing the possibility of this potential post-translational modification. […] In vitro spawning assays using ovarian fragments were performed following procedures described previously. In brief, the ovaries were excised and cut using scissors into small fragments containing only a few lobes. The ovarian fragments were then incubated in artificial seawater containing RGP-type peptides at a range of concentrations (2 × 10^−10–2 × 10^−6 M) for 1 h. As a control experiment, ovarian fragments were incubated in artificial seawater alone. The samples were examined to determine whether or not in vitro spawning had occurred and were scored as follows: (+ + +) spawning occurred and most oocytes had matured; (+ +) about 50% of oocytes had matured, ( +) a few oocytes had matured and ( −): no spawning occurred. […] Means ± standard error of mean (SEM) were determined from four separate assays using ovaries from four different animals.

Row | Substance | cAMP activity / CRE reporter gene activation [1] | cAMP activity / CRE reporter gene activation [2] | gonadotropic activity (shedding of mature eggs / spawning) [3] | relative potency in inducing shedding of mature eggs / spawning ([3]; semi-quantitative, compared with RGP1 or unmodified RGP2)
1 | Acanthaster cf. solaris Relaxin-like gonad-stimulating peptide 2 [AsolRGP2] | no significant increase in cAMP levels; also recorded: Neither AsolRGP1 nor AsolRGP2 induced CRE reporter gene activation | no significant increase in cAMP levels; also recorded: Neither AsolRGP1 nor AsolRGP2 induced CRE reporter gene activation | exhibited gonadotropic activity; also recorded: dose-dependent induction of spawning | slightly less potent than RGP1
2 | Acanthaster cf. solaris Relaxin-like gonad-stimulating peptide 1 [AsolRGP1] | no significant increase in cAMP levels; also recorded: Neither AsolRGP1 nor AsolRGP2 induced CRE reporter gene activation | no significant increase in cAMP levels; also recorded: Neither AsolRGP1 nor AsolRGP2 induced CRE reporter gene activation | exhibited gonadotropic activity; also recorded: dose-dependent induction of spawning | –
